Consider 26 compounds from PubChem BioAssay AID330 (DTP/NCI, 2004).

The experiment relates to P388 leukemia ip, CD2F1 mice, survival T/C. The experiment in a line: NCI In Vivo Anticancer Drug Screen. Data for tumor model P388 Leukemia (intraperitoneal) in CD2F1 (CDF1) mice. The following applies: endpoint: median survival time, higher = longer survival. The gist of the method:
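Mice carrying the transplanted tumor received test compound or vehicle. Survival was recorded in each group, and the value is the treated-group measurement divided by that of the vehicle-treated control group.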

Setting [1] is: dose: 50.0 mg/kg/injection, schedule: Q01DX009 (ip), vehicle: Klucel (hydroxypropylcellulose) (HPC).
The mark [2] stands for this setting: dose: 60.0 mg/kg/injection, schedule: Q01DX005 (ip), vehicle: saline with Tween-80.
Setting [3] is: dose: 120.0 mg/kg/injection, schedule: Q01DX005 (ip), vehicle: saline with Tween-80.
The mark [4] stands for this setting: dose: 50.0 mg/kg/injection, schedule: Q01DX005 (ip), vehicle: saline with Tween-80.
Setting [5] is: dose: 100.0 mg/kg/injection, schedule: Q01DX005 (ip), vehicle: saline with Tween-80.
[6] abbreviates: dose: 200.0 mg/kg/injection, schedule: Q01DX005 (ip), vehicle: saline with Tween-80.
The mark [7] stands for this setting: dose: 50.0 mg/kg/injection, schedule: Q01DX009 (ip), vehicle: saline.
The mark [8] stands for this setting: dose: 100.0 mg/kg/injection, schedule: Q01DX009 (ip), vehicle: saline.
Setting [9] is: dose: 200.0 mg/kg/injection, schedule: Q01DX009 (ip), vehicle: saline.
The mark [10] stands for this setting: dose: 100.0 mg/kg/injection, schedule: Q01DX009 (ip), vehicle: Klucel (hydroxypropylcellulose) (HPC).
[11] abbreviates: dose: 200.0 mg/kg/injection, schedule: Q01DX009 (ip), vehicle: Klucel (hydroxypropylcellulose) (HPC).
The mark [12] stands for this setting: dose: 12.5 mg/kg/injection, schedule: Q01DX009 (ip), vehicle: saline with Tween-80.
Setting [13] is: dose: 25.0 mg/kg/injection, schedule: Q01DX009 (ip), vehicle: saline with Tween-80.
The mark [14] stands for this setting: dose: 50.0 mg/kg/injection, schedule: Q01DX009 (ip), vehicle: saline with Tween-80.
Where [15] appears, read: dose: 100.0 mg/kg/injection, schedule: Q01DX009 (ip), vehicle: saline with Tween-80.
The mark [16] stands for this setting: dose: 240.0 mg/kg/injection, schedule: Q01DX005 (ip), vehicle: saline with Tween-80.
Where [17] appears, read: dose: 60.0 mg/kg/injection, schedule: Q01DX005 (ip), vehicle: Klucel (hydroxypropylcellulose) (HPC).
Where [18] appears, read: dose: 120.0 mg/kg/injection, schedule: Q01DX005 (ip), vehicle: Klucel (hydroxypropylcellulose) (HPC).
Where [19] appears, read: dose: 25.0 mg/kg/injection, schedule: Q01DX009 (ip), vehicle: saline.

Values joined by “and” are separate entries in the source; they are usually repeats but may differ in a detail not shown here. Equal values may be shown once. Toxic doses and inconclusive results are not listed.

On to `COc1cccc2c1C(=O)c1c(O)c3c(c(O)c1C2=O)C[C@@](O)(C(=O)CO)C[C@@H]3OC1CC(NC=O)C(O)C(C)O1` (some centres undefined), for which the T/C runs as follows: (dose: 1.56 mg/kg/injection, schedule: Q01DX009 (ip), vehicle: Klucel (hydroxypropylcellulose) (HPC)) 95 % of control; (dose: 7.4 mg/kg/injection, schedule: Q01DX009 (ip), vehicle: other) 163 % of control; (dose: 11.0 mg/kg/injection, schedule: Q01DX009 (ip), vehicle: other) 157 % of control; (dose: 16.5 mg/kg/injection, schedule: Q01DX009 (ip), vehicle: other) 163 % of control; (dose: 25.0 mg/kg/injection, schedule: Q01DX009 (ip), vehicle: other) 192 % of control; (dose: 37.5 mg/kg/injection, schedule: Q01DX009 (ip), vehicle: other) 201 % of control. For the same compound, the T/C under setting [1] is 121 % of control.

Turning to `O=C(NCCN1C(=O)C2C3CCC(O3)C2C1=O)Nc1ccc([N+](=O)[O-])cc1[N+](=O)[O-]` (centres undefined), the T/C reads like this: under setting [2], 91 % of control; under setting [3], 91 % of control.

On to `C=CCc1ccc(Oc2cc(CC=C)cc(O)c2O)cc1`, for which the T/C by setting is: (dose: 25.0 mg/kg/injection, schedule: Q01DX005 (ip), vehicle: Klucel + Tween-80) 101 % of control; (dose: 50.0 mg/kg/injection, schedule: Q01DX005 (ip), vehicle: Klucel + Tween-80) 104 % of control; (dose: 100.0 mg/kg/injection, schedule: Q01DX005 (ip), vehicle: Klucel + Tween-80) 106 % of control; (dose: 200.0 mg/kg/injection, schedule: Q01DX005 (ip), vehicle: Klucel + Tween-80) 113 % of control.

For the compound `N#Cn1c2ccccc2c(=N)c2ccccc21`, the T/C by setting is: under setting [2], 103 % of control; under setting [3], 102 % of control.

For the compound `COc1ncnc2c1ncn2C1CCCCO1` (centres undefined), the T/C is 97 % of control under setting [4], 101 % of control under setting [5] and 99 % of control under setting [6].

Take `O=S(=O)(Cl)C(F)(F)C(F)(F)F`: the T/C under setting [7] was 100 % of control, the T/C under setting [8] is 110 % of control and the T/C under setting [9] was 103 % of control.

`C=C1C(=O)OC2(C)CCC1CC1OC1(C)CCC=C(C)CCC2O` (centres undefined): the T/C (dose: 12.5 mg/kg/injection, schedule: Q01DX009 (ip), vehicle: Klucel (hydroxypropylcellulose) (HPC)) was 98 % of control; the T/C (dose: 25.0 mg/kg/injection, schedule: Q01DX009 (ip), vehicle: Klucel (hydroxypropylcellulose) (HPC)) was 101 % of control; the T/C under setting [1] is 106 % of control; the T/C under setting [10] was 101 % of control; the T/C under setting [11] was 106 % of control.

With `[Cu+2].[O-]/N=C/c1cccc(O)c1[O-].[O-]/N=C/c1cccc(O)c1[O-]`, the T/C reads like this: (dose: 3.75 mg/kg/injection, schedule: Q01DX005 (ip), vehicle: saline with Tween-80) 98 % of control; (dose: 7.5 mg/kg/injection, schedule: Q01DX005 (ip), vehicle: saline with Tween-80) 100 % of control; (dose: 15.0 mg/kg/injection, schedule: Q01DX005 (ip), vehicle: saline with Tween-80) 99 % of control and 104 % of control; (dose: 30.0 mg/kg/injection, schedule: Q01DX005 (ip), vehicle: saline with Tween-80) 102 % of control; under setting [2], 99 % of control; under setting [3], 92 % of control.

For `O=C(O)C(=O)O.[U]`, the T/C under setting [12] was 100 % of control.

Turning to `Cc1ccc(S(=O)(=O)NC(C)(COS(=O)(=O)c2ccc(C)cc2)COS(=O)(=O)c2ccc(C)cc2)cc1`, the T/C under setting [1] is 95 % of control, the T/C under setting [10] was 96 % of control and the T/C under setting [11] is 96 % of control.

With `Nc1nc[nH]c(=O)c1NC(=O)c1cccc([N+](=O)[O-])c1`, the T/C was 101 % of control under setting [12], 100 % of control under setting [13], 96 % of control under setting [14] and 99 % of control under setting [15].

Regarding `CCOC(=O)c1sc(C(=O)OCC)c2c1-c1cccc3cccc-2c13`, the T/C runs as follows: under setting [2], 100 % of control; under setting [3], 99 % of control; under setting [16], 97 % of control.

Turning to `NC(=S)N=Nc1c(O)n(CCCO)c2ccccc12`, the T/C is 93 % of control under setting [17] and 100 % of control under setting [18].

In the case of `COC(=O)Cn1/c(=N\N=C(/C)c2ccc(OC)cc2)sc2ccccc21`, the T/C is 101 % of control (dose: 100.0 mg/kg/injection, schedule: Q01DX001 (ip), vehicle: saline with Tween-80); 117 % of control (dose: 200.0 mg/kg/injection, schedule: Q01DX001 (ip), vehicle: saline with Tween-80); 92 % of control (dose: 400.0 mg/kg/injection, schedule: Q01DX001 (ip), vehicle: saline with Tween-80).

Consider `Cc1nc(C2(O)C(C3COC(C)(C)O3)OC3OC(C)(C)OC32)no1` (centres undefined), for which the T/C is 100 % of control under setting [2], 100 % of control under setting [3] and 100 % of control under setting [16].

As for `C[As](C)SCC(NC(=O)CCC(N)C(=O)O)C(=O)NCC(=O)O` (centres undefined), the T/C runs as follows: (dose: 12.5 mg/kg/injection, schedule: Q01DX009 (ip), vehicle: saline) 104 % of control; under setting [19], 109 % of control; under setting [9], 97 % of control.

With `CCCN(CCC)CC(O)c1cc2cc(C(F)(F)F)cc(C(F)(F)F)c2c2cc(Cl)c(Cl)cc12` (centres undefined), the T/C reads like this: (dose: 6.25 mg/kg/injection, schedule: Q01DX009 (ip), vehicle: saline with Tween-80) 102 % of control; under setting [12], 101 % of control; under setting [13], 94 % of control; under setting [15], 91 % of control; (dose: 200.0 mg/kg/injection, schedule: Q01DX009 (ip), vehicle: saline with Tween-80) 91 % of control.

Regarding `COC(=O)c1ccc(C)c(N(CCO)CCO)c1`, the T/C was 104 % of control under setting [4], 104 % of control under setting [5] and 104 % of control under setting [6].

On to `CCN(CC)C(=O)C1CCN(Cc2c[nH]c3ccccc23)CC1`, for which the T/C is 99 % of control under setting [19], 104 % of control under setting [7] and 107 % of control under setting [8].

For the compound `Cc1[nH]c2ccccc2c1-c1cc(-c2cc(-c3c(C)[nH]c4ccccc34)nc(N)n2)nc(N)n1`, the T/C is 97 % of control under setting [17] and 90 % of control under setting [18].

`COc1ccc(NC(=O)C2C(=O)N(c3ccc(OC)cc3)C(=O)/C2=N/N=C(N)N)cc1` (centres undefined): the T/C is, setting by setting: (dose: 25.0 mg/kg/injection, schedule: Q04DX002 (ip), vehicle: saline with Tween-80) 99 % of control; (dose: 50.0 mg/kg/injection, schedule: Q04DX002 (ip), vehicle: saline with Tween-80) 101 % of control; (dose: 100.0 mg/kg/injection, schedule: Q04DX002 (ip), vehicle: saline with Tween-80) 98 % of control and 101 % of control.

Turning to `O=C(CI)NCCNc1cccc2c(S(=O)(=O)O)cccc12`, the T/C is, setting by setting: under setting [13], 102 % of control; under setting [14], 100 % of control; under setting [15], 110 % of control and 95 % of control.

As for `c1ccc2c3c(ccc2c1)OCN(C12CC4CC(CC(C4)C1)C2)C3`, the T/C (dose: 100.0 mg/kg/injection, schedule: Q04DX003 (ip), vehicle: saline with Tween-80) is 100 % of control; the T/C (dose: 200.0 mg/kg/injection, schedule: Q04DX003 (ip), vehicle: saline with Tween-80) was 110 % of control; the T/C (dose: 400.0 mg/kg/injection, schedule: Q04DX003 (ip), vehicle: saline with Tween-80) was 110 % of control.

As to `CN1C(=O)c2ccccc2N=CN1C(=O)Nc1ccccc1`, the T/C under setting [4] is 94 % of control, the T/C under setting [5] is 90 % of control and the T/C under setting [6] is 88 % of control.

Turning to `CC1Oc2[nH]c(=O)n(-c3ccc(Cl)cc3)c(=S)c2C1C` (centres undefined), the T/C (dose: 12.5 mg/kg/injection, schedule: Q01DX001 (ip), vehicle: Klucel (hydroxypropylcellulose) (HPC)) is 100 % of control; the T/C (dose: 25.0 mg/kg/injection, schedule: Q01DX001 (ip), vehicle: Klucel (hydroxypropylcellulose) (HPC)) is 102 % of control; the T/C (dose: 50.0 mg/kg/injection, schedule: Q01DX001 (ip), vehicle: Klucel (hydroxypropylcellulose) (HPC)) is 101 % of control.

Consider `CC(=O)Nc1ncnc2c(C3OC(COC(C)=O)C(OC(C)=O)C3OC(C)=O)[nH]nc12` (centres undefined), for which the T/C is, setting by setting: under setting [2], 105 % of control; under setting [3], 95 % of control.
